The values below come from publication PMC8165744, “Identification of an Alternative Glycyrrhizin Metabolite Causing Liquorice-Induced Pseudohyperaldosteronism and the Development of ELISA System to Detect the Predictive Biomarker” (Frontiers in Pharmacology, 2021).

In one data set the target is T1, human OAT3 (Homo sapiens, UniProt Q8TCC7).
T1 construct: expressed in transfected cells; host or cells: HEK293 cells, pCI-neo vector
T1 sequence (Q8TCC7 1-542): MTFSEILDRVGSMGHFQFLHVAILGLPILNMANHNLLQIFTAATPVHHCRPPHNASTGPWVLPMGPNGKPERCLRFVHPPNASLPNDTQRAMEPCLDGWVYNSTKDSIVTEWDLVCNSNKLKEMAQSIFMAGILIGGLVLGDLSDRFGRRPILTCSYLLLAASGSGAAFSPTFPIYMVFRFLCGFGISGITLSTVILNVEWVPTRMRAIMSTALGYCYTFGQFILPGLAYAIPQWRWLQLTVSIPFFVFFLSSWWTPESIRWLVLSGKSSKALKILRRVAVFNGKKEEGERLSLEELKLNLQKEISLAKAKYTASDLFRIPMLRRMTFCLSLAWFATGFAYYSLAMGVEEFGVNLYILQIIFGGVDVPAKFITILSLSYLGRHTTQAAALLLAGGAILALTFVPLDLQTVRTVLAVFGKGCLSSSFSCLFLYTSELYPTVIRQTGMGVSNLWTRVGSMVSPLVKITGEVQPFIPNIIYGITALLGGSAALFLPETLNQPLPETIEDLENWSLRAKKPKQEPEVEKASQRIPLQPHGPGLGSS
Briefly: uptake into HEK293 cells transfected with OAT3. The data set is classed as in vitro ADME. As to conditions: HEK293, EHBR plasma, 37°C, 15 min. The text has this:
(§1) Uptake of Compound 4 by Rat Kidney Slices and Cells Expressing OAT1 and 3
(§2) For the uptake study of 4 into rat kidney slices, we used the samples obtained in our previous study ([Ishiuchi et al., 2019]). For the uptake study of 4 into the cells transiently expressing OAT1 and OAT3, we used the same protocol as in our previous study ([Makino et al., 2012]). cDNAs encoding human OAT1 and OAT3 inserted into pGH19 were generously supplied by Prof. Mitsuru Sugawara (Hokkaido University, Sapporo, Japan), and then subcloned into a pCI-neo mammalian expression vector (Promega, Madison, WI, United States). We used the same pooled plasma of male EHBRs orally treated with GA for 12 h used in our previous study ([Ishiuchi et al., 2019]).
(§3) FIGURE 2 Inhibitory effects of compound 4 on type-2 11β-hydroxysteroid dehydrogenase (11β-HSD2) using rat kidney microsome (A), and the uptake of 4 into rat kidney slices (B) or into HEK293 cells transfected with organic anion transporter (OAT) 1 (C) or OAT3 (D). […] Then, the amount of [^3H] cortisol was measured. […] Concentrations of 4 in kidney slice homogenates were measured using liquid chromatography-tandem mass spectrometry (LC-MS/MS). **p < 0.01 vs 4°C group using Student’s t-test (C) Male EHBRs were orally treated with GA (200 mg/kg) and their plasma samples were collected […] after treatment. […] Then, concentrations of 4 in cells were measured using LC-MS/MS. […]

For another data set, the system named is rat kidney slices. Briefly: uptake into rat kidney slices. The data set is classed as in vitro ADME, Sprague-Dawley (SD) rats. As to conditions: SD rat kidney slices incubated with pooled EHBR plasma for 2 h; p < 0.01.
Excerpt: as §1, §2, §3

Data set [1] is described as follows: pharmacokinetics of GA metabolites in EHBRs orally treated with GA. The data set is classed as in vivo, Eisai hyperbilirubinuria rats (EHBRs). As to conditions: Eisai hyperbilirubinuria rat (EHBR), plasma, oral GA 200 mg/kg, 24 h after treatment, read-out: concentration in plasma sample.
The next data set addresses T2, human OAT1 (Homo sapiens, UniProt Q4U2R8).
T2 construct: expressed in transfected cells; host or cells: HEK293 cells, pCI-neo vector
T2 sequence (Q4U2R8 1-563): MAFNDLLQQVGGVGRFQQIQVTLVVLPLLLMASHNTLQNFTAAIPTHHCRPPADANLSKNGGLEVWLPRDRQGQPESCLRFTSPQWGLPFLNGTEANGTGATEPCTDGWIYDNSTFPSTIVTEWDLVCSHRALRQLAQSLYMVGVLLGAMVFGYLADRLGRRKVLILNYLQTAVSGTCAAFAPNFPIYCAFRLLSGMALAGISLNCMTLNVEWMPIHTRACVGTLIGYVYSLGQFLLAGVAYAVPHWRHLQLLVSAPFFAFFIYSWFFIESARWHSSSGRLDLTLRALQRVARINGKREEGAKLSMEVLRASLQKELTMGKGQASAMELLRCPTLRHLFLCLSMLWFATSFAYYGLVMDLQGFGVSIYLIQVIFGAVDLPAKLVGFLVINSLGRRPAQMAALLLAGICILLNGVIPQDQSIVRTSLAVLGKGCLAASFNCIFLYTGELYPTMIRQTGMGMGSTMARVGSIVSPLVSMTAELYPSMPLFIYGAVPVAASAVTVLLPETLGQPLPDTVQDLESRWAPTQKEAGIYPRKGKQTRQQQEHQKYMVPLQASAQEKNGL
The experiment in a line: uptake into HEK293 cells transfected with OAT1. The data set is classed as in vitro ADME. As to conditions: HEK293, EHBR plasma, 37°C, 15 min.
Excerpt: as §1, §2, §3

Like-named read-outs stand apart in the source and are kept apart here.

Turning to `CC1(C)[C@@H](OS(=O)(=O)O)CC[C@]2(C)[C@H]3C(=O)C=C4[C@@H]5C[C@@](C)(C(=O)O[C@@H]6O[C@H](C(=O)O)[C@@H](O)[C@H](O)[C@H]6O)CC[C@]5(C)CC[C@@]4(C)[C@]3(C)CC[C@@H]12` [Compound 4, 18β-glycyrrhetyl-3-O-sulfate-30-O-glucuronide], the “uptake into cells expressing OAT3 vs mock cells” value at human OAT3 was “significantly higher”. Further, the “uptake by kidney slices, 37°C vs 4°C” value with rat kidney slices was “significantly higher at 37 °C”. The concentration at 24 h in data set [1] (female EHBRs) worked out at 115 µM; in data set [1] (male EHBRs), 189 µM. Besides, on human OAT1, the “uptake into cells expressing OAT1 vs mock cells” value is recorded as “significantly higher”.
